What was measured:
[1] = tested on: B16-F10 cells; test: In vivo tumor metastasis assay, B16-F10 tail vein injection; set-up: species or system mice; conditions: in vivo studies, summary statement
Experimental: In vivo tumor metastasis assay: 2×10^5 B16-F10 cells are injected into the tail vein of tail vein tumor. According to solutions formulated by the NCI Animal Care and Use Committee, metastatic endpoints are determined for each experiment by maximal primary tumor burden and/or appearance of moribund mice in all treatment groups. PDS (5 mg/kg) is administered twice a day, for 16 consecutive days.
Bioluminescent tumor cell tracking: in vivo whole-animal imaging, anesthetized mice are injected intraperitoneally with 3 mg of d-luciferin (MCE, USA). Luminescence data is collected on an IVIS system (Perkin Elmer, USA). For live tissue imaging, tissues are perfused with PBS, harvested, and incubated in PBS with 1 μg/ml-1d-luciferin. Data analysis is performed using an IVIS Image software package.

[2] = tested on: PBX1; test: PBX1 mRNA and protein levels by qRT-PCR and western blot in A375 cells; assay type: cell-based, human
Experimental: (§1) RNA extraction and quantitative RT-PCR detection: total RNA is extracted from cultured cells by using TRIzol (Invitrogen, USA), then is converted into cDNA by SuperScript III First-Strand Synthesis SuperMix (Invitrogen, USA). qRT-PCR detection is performed by using SYBR Green®Mix (Invitrogen, USA) in ABI 7500 (Invitrogen, USA). A relative expression quantity of RNA is calculated by using a comparative CT method.
(§2) Immunoblotting: for protein analysis of a whole-cell lysate, cells are lysed with RIPA (CWBIO, Beijing, China) buffer solution. For tumors, liquid nitrogen is first used to pulverize tissues. Then, the lysate is generated on ice with the RIPA (CWBIO, Beijing, China) buffer solution for 20 minutes, and then centrifuged at 4° C., 13000 rpm for 15 minutes. Protein-containing supernatant is transferred to the fresh microcentrifuge tube, and stored at −20° C. (short-term storage) for subsequent use. The protein is quantified by using the BIO-RAD DC protein assay. The total proteins are electrophoresed on SDS-polyacrylamide gels. Then, the proteins are transferred to polyvinylidene difluoride (PVDF) membrane. After incubation with the primary antibody overnight on the shaker at 4° C., the membrane is washed 6 times (5 minutes each time) with TBS-T (Invitrogen, USA). Then, blots are incubated with horseradish peroxidase (IRP)-conjugated secondary antibodies for 60 minutes at RT on the plate shaker. The membrane is cleaned by TBS-T (6×5 minutes). Detection on immunoreactive bands is performed by using SuperSignalmWest Pico chemiluminescence substrate kit (Thermo Fisher Scientific, USA) and Western blotting detection system (BioRad, USA). GAPDH is used as the loading control for western blotting. The intensity levels of the bands are normalized to GAPDH.

[3] = tested on: PBX1 transcript; test: BG4 RNA immunoprecipitation (RIP) followed by qRT-PCR in A375 cells; assay type: cell-based, human
Experimental: FIGS. 2A-2G are features formed by dG1 and rG1 in vitro and in cells. In (FIG. 2A), Left: CD spectra of WT and Mut dG1, and Right: CD spectra of WT and Mut rG1. CD is circular dichroism. In (FIG. 2B), Left: gel mobility assay of WT and Mut dG1, and Right: gel mobility assay of WT and Mut rG1. In (FIG. 2C), under specified conditions, fluorescence-on assay of NMM in absence of presence of dG1 or rG1, and their G/A mutant. In (FIG. 2D), the occupancy of BG4 in the PBX1 promoter region is measured in A375 cells by BG4 chromatin immunoprecipitation (ChIP), followed by qRT-PCR. In (FIG. 2E), RNA immunoprecipitation (RIP) detection is performed to show the association between BG4 and the PBX1 transcript in A375 cells, followed by qRT-PCR. In (FIG. 2F), the occupancy of BG4 in the PBX1 promoter region is measured, by the BG4 chip, in A375 cells treated with or without PDS and TMPyP4, followed by qRT-PCR. […] SEM represents the standard error of mean. *P< 0.05, **P< 0.01***P< 0.001.
In this embodiment, several methods are further employed to verify the formation of dG1 and rG1. First, circular dichroism (CD) is used to examine the molar ellipticity of dG1 and rG1 sequences (33 nt) and mutants thereof, and the mutants are designed to eliminate G4 formation. […] N-methyl mesoporphyrin IX (NMN) is the well-known fluorescent G4-specific ligand that can be used for studies of G4 formation in vitro. Both dG1 and rG1 are found to enhance the fluorescence of N N (FIG. 2C). In addition, in this embodiment, chromatin immunoprecipitation (ChIP) and RNA immunoprecipitation (RIP) detection are performed in A375 cells using the well-known G4-specific antibody BG4. […] In summary, dG1 and rG1 can fold stable G4 structures in vitro and in cells. […] Therefore, the ability of these G4-specific ligands to interact with PBX1 G4s is investigated next.
Control:mG*mT*mC*mC*mA*mC*mA*mA*mA*mC*mA*mC*mA*mA*mC*mT*mC* mC*mT*mG*). […] This example also establishes short-term cultures of patient-derived melanoma xenograft (PDX)-derived tumor cells (PDCs) (FIG. 5D). […]

[4] = tested on: A375 cells; test: Colony forming assay, A375; assay type: cell-based, human
Experimental: (§3) Colony forming assay: for the colony forming assay, A375 and B16-F10 cells are seeded on 6-well plates with the density of 500-1000 cells. After two weeks, staining is performed by using 1% crystal violet at room temperature, rinsing is performed with PBS and tap water, and the number of colonies is counted.

[5] = tested on: PBX1; test: PBX1 mRNA and protein levels by qRT-PCR and western blot in B16-F10 cells; assay type: cell-based, mouse
Experimental: as §1, §2

[6] = tested on: melanoma cell line; test: Proliferation, migration and invasion of the melanoma cell line (summary statement); assay type: cell-based
Text: The present invention detects the effect of PBX1-G4 on growth and lung metastasis of melanoma and discovers that the expression of PBX1 is positively correlated with the development of melanoma. The sequence of PBX1 is conserved in evolution and is same in mice and human beings. […] The identification of the present invention on the antisense oligonucleotide targeting the PBX1 promoter region G-quadruplex provides the new drug target and new treatment methods and ideas for development of the new generation of medicine for treating melanoma.

[7] = tested on: PDCs; test: Colony forming assay, patient-derived tumor cells; assay type: cell-based, human
Experimental: as §3
Preparation of patient-derived tumor cells: tumor tissues of PDXs are used in basic RPMI1640 medium (Gibco, USA. Free-FBS medium). Patient-derived tumor cells (PDC) are prepared from cryopreserved xenograft fragments using the tumor isolation kit (Miltenyi Biotec, Germany), following the tumor treatment solution. PDCs are cultured as described by Bruna and Shanker et al. (6,7). PDCs are used for colony forming assays.

[8] = tested on: patient-derived melanoma xenograft (PDX); test: PDX model of melanoma in NCG mice; assay type: in vivo
Experimental: PDX model of melanoma: fresh tumor tissues are collected immediately after surgery, placed in RPMI 1640 medium containing penicillin/streptomycin (100 U/ml; 100 μg/ml), fungal zone (1 μg/ml) and Genta Mycin (50 μg/ml) (all from Gibco, USA) (4,5). According to the institutional review and the ethical guidelines for this study approved by the Ethics Committee of the Second Hospital of Jilin University, fresh tumor samples from patients suffering from melanoma are collected for transplantation with informed consent. The mice were kept and all procedures are performed under the approval and supervision of the Institutional Animal Care and Use Committee (IACUC) of the School of Public Health of Jilin University (Changchun, China). Necrotic tissues are excised before transplantation, and tumor tissues are minced to a size of 2×2×2 mm^3, and implanted subcutaneously in the flank of 6-week-old NCG male mice to generate first-generation (F1) PDX mice. Successfully transplanted tumor models are passaged and stored using standard methods. H&E staining is used to evaluate the morphology of patient tumor specimens and xenografts of established PDX models. Treatment with ASO Scr or ASO (intravenous injection, 20 mg/kg) is initiated when the tumor volume of the mice reached 220-280 mm^3. Tumor growth and body weight measurements are performed. Tumors are dissected at the end of treatment for further processing for RNA, protein and histological analysis.
Control:mG*mT*mC*mC*mA*mC*mA*mA*mA*mC*mA*mC*mA*mA*mC*mT*mC* mC*mT*mG*). […] This example also establishes short-term cultures of patient-derived melanoma xenograft (PDX)-derived tumor cells (PDCs) (FIG. 5D). […] To further expand the analysis, this embodiment establishes the PDX model of melanoma, and […] is administered intravenously (intravenous injection) every two days for 21 days.

[9] = western blot, normalized to GAPDH
[10] = PDX, intravenous injection 20 mg/kg every two days for 21 days, vs PBX1 ASO scramble

ASO: ASO specific for the complementary sequence of rG1 in the 5′ UTR of PBX1: mG*mG*mG*G*T*mT*mG*mC*mG*mG*mG*mG*mT*mG*mA*G*G*G*T*mG* (antisense GGGGTTGCGGGGTGAGGGTG; chemistry not given here)
lung metastasis of melanoma [1]: almost completely inhibits | mRNA level of PBX1 ([2]; qRT-PCR): effectively reduce | protein level of PBX1 [2, 9]: effectively reduce | PBX1 transcript pulled down by BG4 [3]: increases | colony formation [4]: decreases | mRNA level of PBX1 ([5]; qRT-PCR): effectively reduce | protein level of PBX1 [5, 9]: effectively reduce | invasion capability of the melanoma cell line [6]: obviously inhibits | migration capability of the melanoma cell line [6]: obviously inhibits | proliferation capability of the melanoma cell line [6]: obviously inhibits | colony formation ability [7]: decreases | expression of proliferation marker Ki67 in tumors ([8]; PDX): significant downregulation | tumor growth [8, 10]: significant reduction | tumor weight [8, 10]: significant reduction | expression of PBX1 in tumors ([8]; PDX, qRT-PCR and IHC staining): significant downregulation | growth of melanoma ([8]; in vivo studies, summary statement): almost completely inhibits
